Reference: ChEMBL document CHEMBL3797052 (Eur J Med Chem, 2016)

System: not listed separately
Assay: Antiproliferative activity against human SKOV3 cells assessed as growth inhibition after 48 hrs by sulforhodamine B assay
Type: functional
Details: SK-OV-3, 48 h

| Structure (SMILES) | GI50 | TGI |
| --- | --- | --- |
| CNC(=O)c1cc(Oc2ccc(NC(=O)Nc3ccc(Cl)c(C(F)(F)F)c3)cc2)ccn1 [SORAFENIB] | 2510 nM | 12.6 µM |

Same assay, conditions: SK-OV-3, 48 h, read-out: LC50 (the source's name)

| Structure (SMILES) | CC50 |
| --- | --- |
| CNC(=O)c1cc(Oc2ccc(NC(=O)Nc3ccc(Cl)c(C(F)(F)F)c3)cc2)ccn1 [SORAFENIB] | 63.1 µM |

System: A498
Assay: Antiproliferative activity against human A498 cells assessed as growth inhibition after 48 hrs by sulforhodamine B assay
Type: functional
Details: A498, 48 h

| Structure (SMILES) | GI50 | TGI |
| --- | --- | --- |
| CNC(=O)c1cc(Oc2ccc(NC(=O)Nc3ccc(Cl)c(C(F)(F)F)c3)cc2)ccn1 [SORAFENIB] | 2510 nM | 6.31 µM |

System: SN12C
Assay: Antiproliferative activity against human SN12C cells assessed as growth inhibition after 48 hrs by sulforhodamine B assay
Type: functional
Details: not given

| Structure (SMILES) | GI50 | TGI |
| --- | --- | --- |
| CNC(=O)c1cc(Oc2ccc(NC(=O)Nc3ccc(Cl)c(C(F)(F)F)c3)cc2)ccn1 [SORAFENIB] | 2510 nM | 10 µM |

Same assay, conditions: read-out: LC50 (the source's name)

| Structure (SMILES) | CC50 |
| --- | --- |
| CNC(=O)c1cc(Oc2ccc(NC(=O)Nc3ccc(Cl)c(C(F)(F)F)c3)cc2)ccn1 [SORAFENIB] | 39.8 µM |

System: A549
Assay: Antiproliferative activity against human A549/ATCC cells assessed as growth inhibition after 48 hrs by sulforhodamine B assay
Type: functional
Details: A549, 48 h

| Structure (SMILES) | GI50 | TGI |
| --- | --- | --- |
| CNC(=O)c1cc(Oc2ccc(NC(=O)Nc3ccc(Cl)c(C(F)(F)F)c3)cc2)ccn1 [SORAFENIB] | 3.16 µM | 12.6 µM |

Same assay, conditions: A549, 48 h, read-out: LC50 (the source's name)

| Structure (SMILES) | CC50 |
| --- | --- |
| CNC(=O)c1cc(Oc2ccc(NC(=O)Nc3ccc(Cl)c(C(F)(F)F)c3)cc2)ccn1 [SORAFENIB] | 63.1 µM |

System: NCI-H460
Assay: Antiproliferative activity against human NCI-H460 cells assessed as growth inhibition after 48 hrs by sulforhodamine B assay
Type: functional
Details: NCI-H460, 48 h

| Structure (SMILES) | GI50 | TGI |
| --- | --- | --- |
| CNC(=O)c1cc(Oc2ccc(NC(=O)Nc3ccc(Cl)c(C(F)(F)F)c3)cc2)ccn1 [SORAFENIB] | 2510 nM | 10 µM |

System: not listed separately
Assay: Antiproliferative activity against human MOLT4 cells assessed as growth inhibition after 48 hrs by sulforhodamine B assay
Type: functional
Details: MOLT-4, 48 h

| Structure (SMILES) | GI50 | TGI |
| --- | --- | --- |
| CNC(=O)c1cc(Oc2ccc(NC(=O)Nc3ccc(Cl)c(C(F)(F)F)c3)cc2)ccn1 [SORAFENIB] | 3.16 µM | 100 µM |

System: not listed separately
Assay: Antiproliferative activity against human PC3 cells assessed as growth inhibition after 48 hrs by sulforhodamine B assay
Type: functional
Details: PC-3, 48 h

| Structure (SMILES) | GI50 | TGI |
| --- | --- | --- |
| CNC(=O)c1cc(Oc2ccc(NC(=O)Nc3ccc(Cl)c(C(F)(F)F)c3)cc2)ccn1 [SORAFENIB] | 2000 nM | 7.94 µM |

System: not listed separately
Assay: Antiproliferative activity against human TK10 cells assessed as growth inhibition after 48 hrs by sulforhodamine B assay
Type: functional
Details: TK-10, 48 h

| Structure (SMILES) | GI50 | TGI |
| --- | --- | --- |
| CNC(=O)c1cc(Oc2ccc(NC(=O)Nc3ccc(Cl)c(C(F)(F)F)c3)cc2)ccn1 [SORAFENIB] | 3.98 µM | 10 µM |

Same assay, conditions: TK-10, 48 h, read-out: LC50 (the source's name)

| Structure (SMILES) | CC50 |
| --- | --- |
| CNC(=O)c1cc(Oc2ccc(NC(=O)Nc3ccc(Cl)c(C(F)(F)F)c3)cc2)ccn1 [SORAFENIB] | 50.1 µM |

System: not listed separately
Assay: Antiproliferative activity against human Caki1 cells assessed as growth inhibition after 48 hrs by sulforhodamine B assay
Type: functional
Details: CAKI-1, 48 h

| Structure (SMILES) | GI50 | TGI |
| --- | --- | --- |
| CNC(=O)c1cc(Oc2ccc(NC(=O)Nc3ccc(Cl)c(C(F)(F)F)c3)cc2)ccn1 [SORAFENIB] | 3.16 µM | 3.98 µM |

Same assay, conditions: CAKI-1, 48 h, read-out: LC50 (the source's name)

| Structure (SMILES) | CC50 |
| --- | --- |
| CNC(=O)c1cc(Oc2ccc(NC(=O)Nc3ccc(Cl)c(C(F)(F)F)c3)cc2)ccn1 [SORAFENIB] | 10 µM |
